Source: patent US20190142971A1, “FORMULATION AND DELIVERY OF MODIFIED NUCLEOSIDE, NUCLEOTIDE, AND NUCLEIC ACID COMPOSITIONS” (ModernaTX, Inc., priority 2013, published 2019)

System: C57/BL6 mice
Assay: Example 47: luciferase mRNA IM, SC, IV in mice, bioluminescence imaging (Tables 76-78)
Assay type: in vivo
Procedure: Modified RNA was delivered to C57/BL6 mice intramuscularly, subcutaneously, or intravenously to evaluate the bio-distribution of modified RNA using luciferase. A formulation buffer used with all delivery methods contained 150 mM sodium chloride, 2 mM calcium chloride, 2 mM Na+-phosphate which included 1.4 mM monobasic sodium phosphate and 0.6 mM of dibasic sodium phosphate, and 0.5 mM ethylenediaminetetraacetic acid (EDTA) was adjusted using sodium hydroxide to reach a final pH of 6.5 before being filtered and sterilized. A 1× concentration was used as the delivery buffer. To create the lipoplexed solution delivered to the mice, in one vial […] was equilibrated for 10 minutes at room temperature in the delivery buffer and in a second vial 10 μl RNAiMAX™ was equilibrated for 10 minutes at room temperature in the delivery buffer. After equilibrium, the vials were combined and delivery buffer was added to reach a final volume of 100 μl which was then incubated for 20 minutes at room temperature. Luciferin was administered by intraperitoneal injection (IP) at 150 mg/kg to each mouse prior to imaging during the plateau phase of the luciferin exposure curve which was between 15 and 30 minutes. To create luciferin, 1 g of D-luciferin potassium or sodium salt was dissolved in 66.6 ml of distilled phosphate buffer solution (DPBS), not containing Mg2+ or Ca2+, to make a 15 mg/ml solution. The solution was gently mixed and passed through a 0.2 μm syringe filter, before being purged with nitrogen, aliquoted and frozen at −80° C. while being protected from light as much as possible. The solution was thawed using a waterbath if luciferin was not dissolved, gently mixed and kept on ice on the day of dosing.
Whole body images were taken of each mouse 2, 8 and 24 hours after dosing. Tissue images and serum was collected from each mouse 24 hours after dosing. Mice administered doses intravenously had their liver, spleen, kidneys, lungs, heart, peri-renal adipose tissue and thymus imaged. Mice administered doses intramuscularly or subcutaneously had their liver, spleen, kidneys, lungs, peri-renal adipose tissue, and muscle at the injection site. From the whole body images the bioluminescence was measured in photon per second for each route of administration and dosing regimen.
The bioluminescence average for the luciferase expression signals for each group at 2, 8 and 24 hours after dosing are shown in Table 76.
(§1) Mice were subcutaneously (S.C.) administered either modified luciferase mRNA (Naked-Luc), lipoplexed modified luciferase mRNA (Lipoplex-luc), lipoplexed modified G-CSF mRNA (Lipoplex-G-CSF) or the formation buffer at a single dose of 50 μg of modified mRNA in an injection volume of 100 μl for each formulation. The bioluminescence average for the luciferase expression signals for each group at 2, 8 and 24 hours after dosing are shown in Table 77.
as §1, with “intravenously (I.V.)” for “subcutaneously (S.C.)”, “signal in the spleen from” for “signals for”, “2” for “2, 8 and 24”, “is” for “are”, “78.” for “77.”

Luciferase: luciferase mRNA, SEQ ID NO: 14, Cap1, fully modified with 5-methylcytosine and pseudouridine
Bioluminescence (I.M., Dose 5 ug, 2 hours): 224,000 photon/sec | Bioluminescence (I.M., Dose 5 ug, 8 hours): 683,000 photon/sec | Bioluminescence (I.M., Dose 5 ug, 24 hours): 927,000 photon/sec | Bioluminescence (I.M., Dose 50 ug, 2 hours): 446,000 photon/sec | Bioluminescence (I.M., Dose 50 ug, 8 hours): 766,000 photon/sec | Bioluminescence (I.M., Dose 50 ug, 24 hours): 509,000 photon/sec | Bioluminescence of the Spleen (I.V., 50 μg, 2 hours after dosing): 58,400 photon/sec | Bioluminescence (S.C., 50 μg, 2 hours): 3,700,000 photon/sec | Bioluminescence (S.C., 50 μg, 8 hours): 8,060,000 photon/sec | Bioluminescence (S.C., 50 μg, 24 hours): 2,080,000 photon/sec
